Laboratory results reported in patent US20210379066A1, “COMBINATIONS OF POSITIVE ALLOSTERIC MODULATORS AND NICOTINIC ACETYLCHOLINE RECEPTOR AGONISTS FOR TREATING OCULAR CONDITIONS” (Oyster Point Pharma, Inc., priority 2018, published 2021).
Entries after “also recorded” stand apart in the source; their conditions may differ. Where two headings read alike, the source gives them in different places. Each block holds one compound with its values, some of them ahead of it.

Columns and labels:
Type in all cases: cell-based
[1] = molecular target: T1, human alpha3alpha5beta4 nAChRs (Homo sapiens, UniProt P30532+P30926+P32297); test: Antagonistic activity / desensitization, cumulative exposure in the low concentration range (Example 2); settings: nanomolar range, up to 300 nM; dihydrate
T1 construct: expressed in transfected cells; host or cells: Xenopus laevis oocytes (cDNA injection)
T1 sequence (P32297 32-505): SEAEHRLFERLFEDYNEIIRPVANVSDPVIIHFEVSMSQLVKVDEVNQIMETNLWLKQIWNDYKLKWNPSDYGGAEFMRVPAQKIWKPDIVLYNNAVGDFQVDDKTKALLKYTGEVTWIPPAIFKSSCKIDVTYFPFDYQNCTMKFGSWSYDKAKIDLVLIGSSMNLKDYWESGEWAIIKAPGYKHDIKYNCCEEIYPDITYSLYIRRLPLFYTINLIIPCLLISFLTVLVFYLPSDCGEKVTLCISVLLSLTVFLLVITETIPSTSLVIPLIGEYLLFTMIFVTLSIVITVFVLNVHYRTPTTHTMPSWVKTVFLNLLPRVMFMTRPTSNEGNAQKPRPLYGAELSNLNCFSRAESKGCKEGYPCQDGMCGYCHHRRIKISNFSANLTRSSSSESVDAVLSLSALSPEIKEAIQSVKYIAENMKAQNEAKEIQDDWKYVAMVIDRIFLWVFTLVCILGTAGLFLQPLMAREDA
T1 sequence (P30532 23-468): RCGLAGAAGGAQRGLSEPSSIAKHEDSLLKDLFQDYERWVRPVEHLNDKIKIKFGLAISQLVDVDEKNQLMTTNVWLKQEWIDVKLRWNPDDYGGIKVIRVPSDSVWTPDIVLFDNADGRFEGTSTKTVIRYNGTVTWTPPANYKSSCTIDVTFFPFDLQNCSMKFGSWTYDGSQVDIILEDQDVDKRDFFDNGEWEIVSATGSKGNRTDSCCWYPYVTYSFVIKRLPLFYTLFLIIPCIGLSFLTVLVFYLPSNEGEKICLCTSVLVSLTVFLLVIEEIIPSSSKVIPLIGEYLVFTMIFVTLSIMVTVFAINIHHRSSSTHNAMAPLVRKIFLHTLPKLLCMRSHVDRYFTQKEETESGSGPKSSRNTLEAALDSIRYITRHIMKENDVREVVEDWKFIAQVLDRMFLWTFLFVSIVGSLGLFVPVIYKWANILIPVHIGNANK
T1 sequence (P30926 22-498): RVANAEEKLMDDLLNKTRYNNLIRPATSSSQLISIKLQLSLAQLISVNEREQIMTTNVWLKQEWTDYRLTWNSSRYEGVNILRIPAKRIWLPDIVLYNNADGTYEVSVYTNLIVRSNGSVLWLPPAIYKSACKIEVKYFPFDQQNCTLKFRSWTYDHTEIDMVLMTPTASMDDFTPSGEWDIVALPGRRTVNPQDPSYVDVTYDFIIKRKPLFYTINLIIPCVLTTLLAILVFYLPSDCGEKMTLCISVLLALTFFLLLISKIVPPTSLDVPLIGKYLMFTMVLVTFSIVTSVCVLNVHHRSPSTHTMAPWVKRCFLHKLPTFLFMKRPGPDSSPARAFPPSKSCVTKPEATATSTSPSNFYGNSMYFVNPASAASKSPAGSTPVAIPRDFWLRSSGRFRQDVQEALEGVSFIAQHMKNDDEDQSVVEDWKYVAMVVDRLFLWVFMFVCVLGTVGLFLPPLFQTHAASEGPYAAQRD

human nAChR alpha3beta4 = molecular target: T2, human nAChR alpha3beta4 (Homo sapiens, UniProt P30926+P32297); test: Agonist activity, two-electrode voltage clamp in Xenopus oocytes (Examples 2 and 5); settings: for agonist character: versus ACh response
T2 construct: expressed in transfected cells; host or cells: Xenopus laevis oocytes (cDNA injection)
T2 sequence (P32297 32-505): as the sequence (P32297 32-505) above
T2 sequence (P30926 22-498): as the sequence (P30926 22-498) above
Protocol: (§1) All experiments were carried out at human nAChRs expressed in Xenopus oocytes using the method of cDNA expression. Xenopus oocytes were prepared and injected using standard procedures.
(§2) Briefly, ovaries were harvested from Xenopus Laevis females that have been deeply anesthetized by cooling at 4° C. and Tricaine methanesulfonate (MS-222 at a concentration of 150 mg/L) in sodium bicarbonate (300 mg/L). Once anesthetized the animal was decapitated and pithed following the rules of animal rights from the Geneva canton. A small piece of ovary was isolated for immediate preparation while the remaining part was placed at 4° C. in a sterile Barth solution containing in mM NaCl 88, KCl 1, NaHCO32.4, HEPES 10, MgSO4.7H2O 0.82, Ca(NO3)2.4H2O 0.33, CaCl2.6H2O 0.41, at pH 7.4, and supplemented with 20 μg/ml of kanamycin, 100 unit/ml penicillin. All recordings were performed at 18° C. and cells superfused with OR2 medium containing in mM: NaCl 88, KCl 2.5, HEPES 5, CaCl2.2H2O 1.8, MgCl2.6H2O 1, pH 7.4.
(§3) Currents evoked by ACh or other agonists were recorded using an automated process equipped with standard two-electrode voltage-clamp configuration (TEVC). Data were captured and analyzed using a HiQScreen proprietary data acquisition and analysis software running under Matlab (Mathworks Inc.).
(§4) See Example 1. […] The test concentration of acetylcholine chloride was 1280 micromolar.
(§5) Injections of cDNAs encoding for the human alpha3beta4, alpha3alpha5beta4, alpha4beta2, and alpha7 were performed in at least 95 oocytes were performed using a proprietary automated injection and receptor expression examined at least two days later. Oocytes were poked with two electrodes and their membrane potential maintained, unless indicated, at −80 mV throughout the experiment.
(§6) A protocol to determine agonistic activity in the oocytes expressing the nAChRs was developed. The cells were exposed to a series of increasing concentrations of a compound agonist for 10 seconds each at two minute intervals. The current evoked from exposure to the agonist at each concentration was recorded. For oocytes expressing alpha7 nAChRs, exposure to the agonist was reduced to 5 seconds. This process was repeated for each agonist tested against each type of nAChR expressing cell.
(§7) To evaluate the agonistic properties of compound 1 hemi-galactarate dihydrate a protocol of brief exposures to a series of growing concentrations of compound 1 hemi-galactarate dihydrate was used.
(§8) Agonist Preparation: See Example 1. […] The test concentration of acetylcholine chloride was 1280 micromolar.
as §5, with “Experimental Procedures: Injections” for “Injections”, “alpha4beta2, alpha4alpha6beta2,” for “alpha4beta2,”, “oocytes” for “oocytes were performed”, “injection device. Cellular” for “injection and”, “expression was” for “expression”
as §6, with “developed. Oocytes expressing a nAChR subtype were exposed to a brief test pulse of acetylcholine (1280 micromolar) while the holding current and response was evaluated. Cells displaying robust currents were washed for 90 seconds.” for “developed.”, “were then” for “were”, “nAChR” for “compound”, “intervals. The nAChR agonist test concentrations were 0.1, 0.3, 1, 3, 10, 30, 100, 300 (micromolar).” for “intervals.”

human nAChR alpha4beta2 = molecular target: T3, human nAChR alpha4beta2 (Homo sapiens, UniProt P17787+P43681); test: as above; settings: for EC50: Example 2; for effect on the subsequent ACh-evoked current: after exposure to the agonist concentration series; for agonist character: versus ACh response
T3 construct: expressed in transfected cells; host or cells: Xenopus laevis oocytes (cDNA injection)
T3 sequence (P43681 29-627 limits assumed): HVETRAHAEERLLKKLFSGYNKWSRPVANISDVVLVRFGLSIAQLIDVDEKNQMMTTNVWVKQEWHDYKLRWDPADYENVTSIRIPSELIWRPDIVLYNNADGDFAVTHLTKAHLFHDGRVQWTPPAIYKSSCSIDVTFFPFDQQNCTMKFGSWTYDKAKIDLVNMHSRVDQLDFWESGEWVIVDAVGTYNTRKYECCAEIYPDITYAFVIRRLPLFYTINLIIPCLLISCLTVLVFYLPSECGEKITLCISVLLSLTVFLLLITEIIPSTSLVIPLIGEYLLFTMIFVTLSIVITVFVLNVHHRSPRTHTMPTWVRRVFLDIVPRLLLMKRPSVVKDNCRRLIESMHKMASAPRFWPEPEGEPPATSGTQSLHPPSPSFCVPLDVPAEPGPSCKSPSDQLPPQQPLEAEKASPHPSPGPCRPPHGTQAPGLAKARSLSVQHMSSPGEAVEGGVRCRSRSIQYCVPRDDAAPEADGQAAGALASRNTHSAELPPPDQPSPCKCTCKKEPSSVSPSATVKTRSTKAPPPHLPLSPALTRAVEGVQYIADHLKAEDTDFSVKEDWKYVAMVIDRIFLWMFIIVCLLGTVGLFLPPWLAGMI
T3 sequence (P17787 26-502): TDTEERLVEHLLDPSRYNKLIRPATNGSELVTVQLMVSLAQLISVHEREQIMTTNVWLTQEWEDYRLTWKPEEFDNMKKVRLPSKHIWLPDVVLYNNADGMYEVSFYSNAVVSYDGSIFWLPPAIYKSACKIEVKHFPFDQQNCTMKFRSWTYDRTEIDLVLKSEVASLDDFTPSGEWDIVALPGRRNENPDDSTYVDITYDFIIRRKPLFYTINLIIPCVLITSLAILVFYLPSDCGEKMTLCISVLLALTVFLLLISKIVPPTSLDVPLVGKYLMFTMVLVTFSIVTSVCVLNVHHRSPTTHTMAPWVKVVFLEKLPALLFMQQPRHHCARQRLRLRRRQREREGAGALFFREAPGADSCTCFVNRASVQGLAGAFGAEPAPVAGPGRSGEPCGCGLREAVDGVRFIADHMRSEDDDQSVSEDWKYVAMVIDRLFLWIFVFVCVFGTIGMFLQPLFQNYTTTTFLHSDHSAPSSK
Protocol: as §1, §2, §3, §4, §5, §6, §7, §8
as §5, with “Experimental Procedures: Injections” for “Injections”, “alpha4beta2, alpha4alpha6beta2,” for “alpha4beta2,”, “oocytes” for “oocytes were performed”, “injection device. Cellular” for “injection and”, “expression was” for “expression”
as §6, with “developed. Oocytes expressing a nAChR subtype were exposed to a brief test pulse of acetylcholine (1280 micromolar) while the holding current and response was evaluated. Cells displaying robust currents were washed for 90 seconds.” for “developed.”, “were then” for “were”, “nAChR” for “compound”, “intervals. The nAChR agonist test concentrations were 0.1, 0.3, 1, 3, 10, 30, 100, 300 (micromolar).” for “intervals.”

human nAChR alpha7 = molecular target: T4, human nAChR alpha7 (Homo sapiens, UniProt P36544); test: as above; settings: for agonist character: versus ACh response
T4 construct: expressed in transfected cells; host or cells: Xenopus laevis oocytes (cDNA injection)
T4 sequence (P36544 23-502): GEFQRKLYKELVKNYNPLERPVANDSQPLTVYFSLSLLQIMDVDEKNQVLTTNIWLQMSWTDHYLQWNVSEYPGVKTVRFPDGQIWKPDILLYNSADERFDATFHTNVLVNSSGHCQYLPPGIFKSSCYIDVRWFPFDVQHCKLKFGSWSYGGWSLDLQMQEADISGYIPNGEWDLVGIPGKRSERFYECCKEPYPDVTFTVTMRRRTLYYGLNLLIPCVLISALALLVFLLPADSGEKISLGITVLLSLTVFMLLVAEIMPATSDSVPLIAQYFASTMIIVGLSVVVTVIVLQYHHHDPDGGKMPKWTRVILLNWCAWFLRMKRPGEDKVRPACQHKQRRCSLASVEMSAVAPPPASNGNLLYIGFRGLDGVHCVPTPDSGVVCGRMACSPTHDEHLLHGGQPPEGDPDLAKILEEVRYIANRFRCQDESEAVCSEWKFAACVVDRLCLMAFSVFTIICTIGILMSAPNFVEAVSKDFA
Protocol: as §1, §2, §3, §4, §5, §6, §7, §8
as §5, with “Experimental Procedures: Injections” for “Injections”, “alpha4beta2, alpha4alpha6beta2,” for “alpha4beta2,”, “oocytes” for “oocytes were performed”, “injection device. Cellular” for “injection and”, “expression was” for “expression”
as §6, with “developed. Oocytes expressing a nAChR subtype were exposed to a brief test pulse of acetylcholine (1280 micromolar) while the holding current and response was evaluated. Cells displaying robust currents were washed for 90 seconds.” for “developed.”, “were then” for “were”, “nAChR” for “compound”, “intervals. The nAChR agonist test concentrations were 0.1, 0.3, 1, 3, 10, 30, 100, 300 (micromolar).” for “intervals.”

[2] = molecular target: T5, human nAChR alpha3alpha5beta4 (Homo sapiens, UniProt P30532+P30926+P32297); test: as above; settings: for EC50: Example 2; for agonist character: versus ACh response
T5 construct: expressed in transfected cells; host or cells: Xenopus laevis oocytes (cDNA injection)
T5 sequence (P32297 32-505): as the sequence (P32297 32-505) above
T5 sequence (P30532 23-468): as the sequence (P30532 23-468) above
T5 sequence (P30926 22-498): as the sequence (P30926 22-498) above
Protocol: as §1, §2, §3, §4, §5, §6, §7, §8
as §5, with “Experimental Procedures: Injections” for “Injections”, “alpha4beta2, alpha4alpha6beta2,” for “alpha4beta2,”, “oocytes” for “oocytes were performed”, “injection device. Cellular” for “injection and”, “expression was” for “expression”
as §6, with “developed. Oocytes expressing a nAChR subtype were exposed to a brief test pulse of acetylcholine (1280 micromolar) while the holding current and response was evaluated. Cells displaying robust currents were washed for 90 seconds.” for “developed.”, “were then” for “were”, “nAChR” for “compound”, “intervals. The nAChR agonist test concentrations were 0.1, 0.3, 1, 3, 10, 30, 100, 300 (micromolar).” for “intervals.”

human alpha3beta4 nAChRs [3] = molecular target: T6, human alpha3beta4 nAChRs (Homo sapiens, UniProt P30926+P32297); test: Antagonistic activity / desensitization, cumulative exposure in the low concentration range (Example 2); settings: concentrations up to 300 nM
T6 construct: expressed in transfected cells; host or cells: Xenopus laevis oocytes (cDNA injection)
T6 sequence (P32297 32-505): as the sequence (P32297 32-505) above
T6 sequence (P30926 22-498): as the sequence (P30926 22-498) above

human alpha7 nAChRs = molecular target: T7, human alpha7 nAChRs (Homo sapiens, UniProt P36544); test: as above; settings: concentrations up to 300 nM; dihydrate
T7 construct: expressed in transfected cells; host or cells: Xenopus laevis oocytes (cDNA injection)
T7 sequence (P36544 23-502): as the sequence (P36544 23-502) above

human alpha4beta2 nAChRs [4] = molecular target: T8, human alpha4beta2 nAChRs (Homo sapiens, UniProt P17787+P43681); test: as above; settings: nanomolar range, up to 300 nM; dihydrate
T8 construct: expressed in transfected cells; host or cells: Xenopus laevis oocytes (cDNA injection)
T8 sequence (P43681 29-627 limits assumed): as the sequence (P43681 29-627 limits assumed) above
T8 sequence (P17787 26-502): as the sequence (P17787 26-502) above

human alpha4beta2 nAChRs [5] = molecular target: T8, human alpha4beta2 nAChRs; test: Desensitization by sustained (1 hour) agonist exposure and recovery, without and with PAM, Xenopus oocytes (Example 1); settings: no PAM; for desensitization / inhibition of the response by sustained agonist exposure: 1 hour exposure, 1 mM compound 1 hemi-galactarate dihydrate or 300 μM varenicline tartrate; for recovery of the response after wash: after 1 hour agonist exposure, 3 hours wash
human alpha4beta2 nAChRs [6] = molecular target: T8, human alpha4beta2 nAChRs; test: Sustained exposure to 300 μM varenicline tartrate and its recovery (Example 2); settings: 36 minutes wash
human alpha3beta4 nAChRs [7] = molecular target: T6, human alpha3beta4 nAChRs; test: as above
[8] = listed as Compound 1 hemi-galactarate dihydrate, dihydrate

Compound: C(=C\[C@H]1CCNC1)/c1cncnc1 [compound 1 hemi-galactarate dihydrate, (R)-5-((E)-2-pyrrolidin-3-ylvinyl)pyrimidine hemigalactarate dihydrate]
- inhibition of the ACh-evoked current by sustained exposure [1]: marked inhibition; also recorded: inhibits in a concentration-dependent manner
- percent of the maximal ACh-evoked currents (human nAChR alpha3beta4; ACh 1280 micromolar): about 94%
- EC50 (human nAChR alpha3beta4; read-out: EC50): 42.1 ± 5.36 µM
- agonist character (human nAChR alpha3beta4; [8]): almost as a full agonist
- evoked currents larger than the maximal ACh responses (human nAChR alpha4beta2): about 2 fold
- EC50 (human nAChR alpha4beta2; read-out: EC50): 48.8 ± 17.4 µM
- effect on the subsequent ACh-evoked current (human nAChR alpha4beta2; dihydrate): enhanced
- agonist character (human nAChR alpha4beta2; [8]): more potent agonist than ACh
- EC50 (human nAChR alpha7; Example 2, value for compound 1 salt only an estimation): 1260 ± 500 µM
- percent of the maximal ACh-evoked current (human nAChR alpha7; at 300 μM (300 micromolar) agonist, dihydrate): 24%
- agonist character (human nAChR alpha7; dihydrate): poor agonist
- agonist character (human nAChR alpha7; [8]): more potent agonist than ACh
- percent of the maximal ACh-evoked currents ([2]; ACh 1280 micromolar): about 94%
- EC50 ([2]; read-out: EC50): 32.1 ± 2.16 µM
- agonist character [2, 8]: almost as a full agonist
- inhibition of the ACh-evoked current by sustained exposure (human alpha3beta4 nAChRs [3]; dihydrate): insensitive; also recorded: no significant inhibition
- inhibition of the ACh-evoked current by sustained exposure (human alpha7 nAChRs): insensitive; also recorded: no significant inhibition
- inhibition of the ACh-evoked current by sustained exposure (human alpha4beta2 nAChRs [4]): marked inhibition; also recorded: inhibits in a concentration-dependent manner
- desensitization / inhibition of the response by sustained agonist exposure (human alpha4beta2 nAChRs [5]; dihydrate): no long-lasting desensitization; also recorded: only a modest inhibition; also recorded: does not cause a long-lasting inhibition; also recorded: no long-lasting inhibition
- recovery of the response after wash (human alpha4beta2 nAChRs [5]): almost full recovery
- response after 18 hours recovery (human alpha4beta2 nAChRs [5]; after 1 hour exposure to 1 mM agonist): significant increase of the response

- EC50 (human nAChR alpha3beta4): low micromolar range
- agonist character (human nAChR alpha3beta4): partial agonist
- EC50 (human nAChR alpha4beta2): low micromolar range
- effect on the subsequent ACh-evoked current (human nAChR alpha4beta2): major inhibition
- agonist character (human nAChR alpha4beta2): partial agonist
- agonist character (human nAChR alpha4beta2; listed as Varenicline tartrate): very poor agonist
- EC50 [2]: low micromolar range
- agonist character [2]: partial agonist
Compound: varenicline tartrate [reference compound]
- recovery from desensitization (human alpha4beta2 nAChRs [6]): absence of recovery; also recorded: cannot be recovered even after 36 minutes wash
- inhibition of the ACh-evoked current by sustained exposure (human alpha3beta4 nAChRs [3]): very modest effect; also recorded: no significant inhibition
- recovery from desensitization (human alpha3beta4 nAChRs [7]; 300 μM, 36 minutes wash): absence of recovery; also recorded: cannot be recovered even after 36 minutes wash
- response evoked by 300 μM agonist (human alpha3beta4 nAChRs [7]; applied during three minutes): larger current amplitude; also recorded: rather large response
- desensitization / inhibition of the response by sustained agonist exposure (human alpha4beta2 nAChRs [5]): profound inhibition; also recorded: major desensitization; also recorded: sustained inhibition; also recorded: major inhibition
- recovery of the response after wash (human alpha4beta2 nAChRs [5]): could not be removed even after a three-hour wash period; also recorded: no significant recovery; also recorded: absence of recovery
